Test results: ChEMBL document CHEMBL6177994 (J Med Chem, 2025)
Activity calls are given as the source filed them. The calls are words filed in the database; no cut-off is given here.

What was measured:
ASPC1 [1] = test: Potency index , ratio of MRTX1133 IC50 to test compound IC50 for antiproliferative activity against human ASPC1 cells assessed as inhibition of cell growth measured after 72 hrs by Cell titer glo method; type: functional
[2] = tested on: Protein cereblon/GTPase KRas (Homo sapiens), P01116+Q96SW2 [G12D]; test: PROTAC activity at CRBN/KRAS G12D mutant in human ASPC1 cells assessed as induction of KRAS G12D mutant degradation at 10 nM measured after 12 hrs by immunoblot analysis relative to control; type: cell-based
[3] = Antitumor activity against human PK-59 cells xenografted in female Balb/c nude mouse model assessed as tumor growth inhibition at 0.3 mg/kg, iv QW measured after 28 days relative to control; type: functional; conditions: PK-59, 672 h, time 28 day, read-out: TGI
HCC1588 = test: Antiproliferative activity against human HCC1588 cells harbouring KRAS G12D mutant assessed as inhibition of cell growth measured after 72 hrs by Cell titer glo method; type: functional, cell-based
Cytochrome P450 3A4 = Cytochrome P450 3A4 (Homo sapiens, UniProt P08684); test: Inhibition of CYP3A4 in human liver microsomes using midazolam as substrate at 10 uM incubated for 15 mins in presence of NADPH by LC/MS analysis; type: ADME, Microsome; conditions: 0.25 h
[4] = AUC (0 to t) in male cynomolgus monkey at 1 mg/kg, iv measured up to 24 hrs by LC-MS/MS analysis; type: ADME, organism-based, Macaca fascicularis; conditions: in vivo
[5] = tested on: Protein cereblon/GTPase KRas (Homo sapiens), P01116+Q96SW2 [G12D]; test: PROTAC activity at CRBN/KRAS G12D mutant in human ASPC1 cells assessed as induction of KRAS G12D mutant degradation at 5 nM measured after 24 hrs by immunoblot analysis relative to control; type: cell-based
[6] = Half life in male Beagle dog at 1 mg/kg, iv measured up to 24 hrs by LC-MS/MS analysis; type: ADME, organism-based, Canis lupus familiaris; conditions: in vivo
[7] = tested on: Protein cereblon/GTPase KRas (Homo sapiens), P01116+Q96SW2 [G12D]; test: PROTAC activity at CRBN/KRAS G12D mutant in human ASPC1 cells assessed as induction of KRAS G12D mutant degradation at 1 nM measured after 12 hrs by immunoblot analysis relative to control; type: cell-based
[8] = Drug concentration in male Balb/c nude mouse tumor xenografted with human GP2d cells at 10 mg/kg, iv administered as single dose measured after 7 days by LC-MS/MS analysis; type: ADME, organism-based, Neoplasm; conditions: time 7 day, read-out: Ct
[9] = Drug concentration in male Balb/c nude mouse plasma xenografted with human GP2d cells at 10 mg/kg, iv administered as single dose measured after 168 hrs by LC-MS/MS analysis; type: ADME, organism-based
[10] = Inhibition of ERK phosphorylation in human AGS cells harbouring KRAS G12D mutant measured after 24 hrs; type: cell-based
[11] = Clearance in male cynomolgus monkey at 1 mg/kg, iv measured up to 24 hrs by LC-MS/MS analysis; type: ADME, organism-based, Macaca fascicularis; conditions: in vivo
[12] = Volume of distribution at steady state in male ICR mouse at 1 mg/kg, iv measured up to 24 hrs by LC-MS/MS analysis; type: ADME, organism-based; conditions: in vivo, read-out: Vdss
[13] = AUC (0 to t) in male Beagle dog at 1 mg/kg, iv measured up to 24 hrs by LC-MS/MS analysis; type: ADME, organism-based, Canis lupus familiaris; conditions: in vivo
SW1990 = test: Antiproliferative activity against human SW1990 cells harbouring KRAS G12D mutant assessed as inhibition of cell growth measured after 72 hrs by Cell titer glo method; type: functional, cell-based
[14] = target: Protein cereblon/GTPase KRas (Homo sapiens) (UniProt P01116+Q96SW2); test: PROTAC activity at CRBN/KRAS in human MKN-1 cells assessed as induction of KRAS degradation 1 nM measured after 24 hrs by immunoblot analysis; type: cell-based
[15] = tested on: Protein cereblon/GTPase KRas (Homo sapiens), P01116+Q96SW2 [G12D]; test: In vivo PROTAC activity at CRBN/KRAS G12D mutant in male Balb/c nude mouse xenografted with human PK-59 cells assessed as degradation of KRAS G12D mutant at 10 mg/kg, iv measured up to 168 hrs relative to control; type: functional, organism-based
[16] = Inhibition of ERK phosphorylation in human ASPC1 cells harbouring KRAS G12D mutant measured after 24 hrs; type: cell-based; conditions: ASPC1, 24 h
ASPC1 [17] = test: Antiproliferative activity against human ASPC1 cells harbouring KRAS G12D mutant assessed as inhibition of cell growth measured after 72 hrs by Cell titer glo method; type: functional, cell-based; conditions: ASPC1, 72 h
PK-59 = test: PROTAC activity at CRBN/KRAS G12D mutant in human PK-59 cells assessed as induction of KRAS G12D mutant degradation 0.01 to 100 nM measured after 24 hrs by immunoblot analysis; type: cell-based; conditions: dose 0.01-100 nM
[18] = Antiproliferative activity against human PK-59 cells harbouring KRAS G12D mutant assessed as inhibition of cell growth measured after 72 hrs by Cell titer glo method; type: functional, cell-based; conditions: PK-59, 72 h
[19] = tested on: Protein cereblon/GTPase KRas (Homo sapiens), P01116+Q96SW2 [G12D]; test: In vivo PROTAC activity at CRBN/KRAS G12D mutant in male Balb/c nude mouse xenografted with human GP2d cells assessed as increase in cleaved caspase 7 level at 10 mg/kg, iv measured after 7 days; type: functional, organism-based; conditions: time 7.0 day
[20] = Stability in human plasma assessed as half life at 1 uM measured up to 120 mins by LC-MS/MS analysis; type: ADME, cell-free
[21] = Antitumor activity against human PK-59 cells xenografted in female Balb/c nude mouse model assessed as tumor growth inhibition at 3 mg/kg, iv QW measured after 28 days relative to control; type: functional; conditions: PK-59, 672 h, time 28 day, read-out: TGI
[22] = Elimination half life in male ICR mouse lung at 10 mg/kg, iv measured up to 336 hrs by LC-MS/MS analysis; type: ADME, organism-based; conditions: read-out: beta t1/2 (converted)
[23] = Toxicity in female Balb/c nude mouse xenografted with human GP2d cells assessed as change in body weight at 1 to 10 mg/kg, iv QW measured after 28 days; type: organism-based; conditions: in vivo, 672 h, dose 1-10 mg/kg, time 28 day
[24] = Plasma protein binding in mouse at 2 uM by LC-MS/MS analysis; type: ADME, cell-free; conditions: read-out: PPB
[25] = Drug concentration in male Balb/c nude mouse tumor xenografted with human PK-59 cells at 10 mg/kg, iv administered as single dose measured after 168 hrs by LC-MS/MS analysis; type: ADME, organism-based, Neoplasm; conditions: read-out: Ct
[26] = Plasma protein binding in rat at 2 uM by LC-MS/MS analysis; type: ADME, cell-free; conditions: read-out: PPB
[27] = Toxicity in female Balb/c nude mouse xenografted with human PK-59 cells assessed as change in body weight at 0.1 to 3 mg/kg, iv QW measured after 28 days; type: organism-based; conditions: in vivo, 672 h, dose 0.1-3 mg/kg, time 28 day
ASPC1 [28] = test: Effect on CK1alpha level in human ASPC1 cells at 10 nM measured after 8 hrs by Western blot analysis; type: functional, cell-based
[29] = Antitumor activity against human GP2d cells xenografted in female Balb/c nude mouse model assessed as tumor growth inhibition at 1 mg/kg, iv QW measured after 28 days relative to control; type: functional; conditions: 672 h, time 28 day, read-out: TGI
[30] = Metabolic stability in rat liver microsomes assessed as half life at 1 uM preincubated for 3 mins with NADPH and measured up to 60 mins by LC-MS/MS analysis; type: ADME, Microsome; conditions: time < 63 min

Protein cereblon/GTPase KRas (Homo sapiens), P01116+Q96SW2 [G12D], sequence (P01116 whole entry G12D): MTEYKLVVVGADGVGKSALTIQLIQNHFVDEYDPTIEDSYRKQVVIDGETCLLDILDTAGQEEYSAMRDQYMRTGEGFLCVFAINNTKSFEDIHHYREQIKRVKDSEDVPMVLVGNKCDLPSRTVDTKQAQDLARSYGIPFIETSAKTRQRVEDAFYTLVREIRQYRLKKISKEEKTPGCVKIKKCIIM
Protein cereblon/GTPase KRas (Homo sapiens), P01116+Q96SW2 [G12D], sequence (Q96SW2 whole entry partner): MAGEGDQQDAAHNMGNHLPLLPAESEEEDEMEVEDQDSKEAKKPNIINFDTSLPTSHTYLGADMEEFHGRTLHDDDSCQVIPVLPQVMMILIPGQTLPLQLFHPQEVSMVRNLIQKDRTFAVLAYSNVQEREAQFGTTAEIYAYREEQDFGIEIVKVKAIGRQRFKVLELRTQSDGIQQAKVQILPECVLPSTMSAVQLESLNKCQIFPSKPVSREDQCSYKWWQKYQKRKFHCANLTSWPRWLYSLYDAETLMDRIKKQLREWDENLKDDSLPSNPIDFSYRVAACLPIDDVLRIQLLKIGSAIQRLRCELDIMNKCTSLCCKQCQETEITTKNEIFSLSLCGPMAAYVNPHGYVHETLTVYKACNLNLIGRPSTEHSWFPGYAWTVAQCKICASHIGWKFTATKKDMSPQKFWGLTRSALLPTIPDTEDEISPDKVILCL
Cytochrome P450 3A4, sequence (P08684 whole entry): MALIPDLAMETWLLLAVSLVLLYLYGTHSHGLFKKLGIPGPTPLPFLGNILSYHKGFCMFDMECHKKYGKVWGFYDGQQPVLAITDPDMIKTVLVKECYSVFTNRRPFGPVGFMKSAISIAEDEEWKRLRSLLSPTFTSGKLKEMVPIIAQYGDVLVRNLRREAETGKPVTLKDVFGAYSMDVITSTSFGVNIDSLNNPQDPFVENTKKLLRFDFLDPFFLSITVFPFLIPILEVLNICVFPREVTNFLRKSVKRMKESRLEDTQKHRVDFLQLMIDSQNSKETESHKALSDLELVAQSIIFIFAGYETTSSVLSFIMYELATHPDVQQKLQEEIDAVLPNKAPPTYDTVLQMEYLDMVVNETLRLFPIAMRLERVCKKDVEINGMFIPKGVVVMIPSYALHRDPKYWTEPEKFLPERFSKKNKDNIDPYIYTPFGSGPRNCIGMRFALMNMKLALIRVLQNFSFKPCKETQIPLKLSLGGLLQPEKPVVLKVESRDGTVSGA
Protein cereblon/GTPase KRas (Homo sapiens), sequence (P01116 whole entry, looked up): as the sequence (P01116 whole entry G12D) above, with D12G counted along it
Protein cereblon/GTPase KRas (Homo sapiens), sequence (Q96SW2 whole entry, looked up): as the sequence (Q96SW2 whole entry partner) above

C#Cc1c(F)ccc2cc(O)cc(-c3ncc4c(N5CC6CCC(C5)N6)nc(OCC5(CN6CCC7(CC6)CC(N6CCC(c8cc9c(cc8F)c(N8CCC(=O)NC8=O)nn9C)CC6)C7)CC5)nc4c3F)c12
Ratio IC50 (ASPC1 [1]): >10
Activity [2]: 90%
inhibition in vivo at 0.3 mg/kg [3]: 93%
Activity (HCC1588): Active; Compound Showed Stronger Antiproliferative Activity Compared To Mrtx1133
inhibition (INH) (Cytochrome P450 3A4): Not_active
AUC(0-t) at 24 h [4]: 0.836 µM·h
Activity [5]: 92%
half-life [6]: 15.6 h
Activity [7]: 70%
concentration at 168 h [8]: 840 ng/g
concentration at 168 h [9]: 4.1 ng/mL
IC50 [10]: 10.6 nM
clearance [11]: 19.5 mL/min/kg
Vd [12]: 15.8 L/kg
AUC(0-t) at 24 h [13]: 0.458 µM·h
Activity (SW1990): Active; Compound Showed Stronger Antiproliferative Activity Compared To Mrtx1133
Activity [14]: inactive
Activity [15]: 87.7%
IC50 [16]: 2.5 nM
IC50 (ASPC1 [17]): 4.19 nM
Activity (PK-59): Active
IC50 [18]: 2.8 nM
Activity [19]: Active
half-life at 1 µM [20]: 165 h
inhibition in vivo at 3 mg/kg [21]: 42.9%
half-life [22]: 105 h
Activity [23]: Non-toxic
fraction unbound at 2 µM [24]: < 0.05
concentration at 168 h [25]: 719 ng/g
fraction unbound at 2 µM [26]: < 0.05
Activity [27]: Non-toxic
Activity (ASPC1 [28]): inactive
inhibition in vivo at 1 mg/kg [29]: 74.8%
half-life at 1 µM [30]: 2.52 h
